Patent US8163939B2, “Ascorbic acid derivative or salt thereof, production method thereof, and cosmetic” (Seikwa Kasei Company, Limited, priority 2007, dated 2012)

Key:
[1] = tested on: B16 melanoma 4A5 cell; assay: Whitening test: theophylline-induced melanine production in B16 melanoma 4A5 cells; assay type: cell-based, mouse; conditions: sample at a concentration of 100 μM or less; theophylline-induced melanine production; 3 days culture; N=4
Method in brief: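 Murine B16 4A5 cells were grown 24 h, then cultured 3 days in D-MEM with 10% FBS, 0.2 mM theophylline and sample. Melanin was dissolved in 2N NaOH at 60° C for 15 min, read at 450 nm against a synthetic-melanin standard and normalised to BCA protein. Suppression % = [1−(A−B)/(C−B)]×100 versus normal and control groups, with samples at ≤100 μM, N=4.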

[2] = Stability Test 1: 2% aqueous solution, pH7, room temperature, 4 weeks (residual rate, odor, coloration); assay type: physicochemical
Experimental: (§1) Aqueous solutions (2%) of various test samples were adjusted to pH7 with a dilute sodium hydroxide aqueous solution, and charged into 50 mL screw tubes, and the tubes were sealed and stored at room temperature for 4 weeks. Thereafter, HPLC measurement were performed (using liquid chromatography manufactured by Tosoh Corp.) and the residual rate was obtained based on the peak area. The residual rate, odor(odor change) and degree of coloration were evaluated based on the following methods and standards, and the results are shown in Table 41.
◯: 80% or more and less than 90%
Δ: 60% or more and less than 80%
X: 20% or more and less than 60%
It was evaluated according to the following criterion by 10 panelists.
Based on the evaluation results, classification was conducted as shown below.
◯: total point of 10 panelists is 25 or more
Δ: total point of 10 panelists is 16 to 24
X: total point of 10 panelists is 15 or less
3: almost no change as compared with that immediately after preparation
2: coloration is observed as compared with that immediately after preparation
1: intense coloration is observed as compared with that immediately after preparation

[3] = Stability Test 2: 2% aqueous solution, pH7, 50° C., 4 weeks (residual rate, odor, coloration); assay type: physicochemical
Experimental: as §1
The same test as in Test Example 2 was carried out excepting that the sample was stored at 50° C. for 4 weeks instead of storing at room temperature for 4 weeks.

[4] = Moisturizing test: moisturizing effect by water retention force; assay type: physicochemical
Experimental: A sample shown later was dried, and the dried sample was spread in an amount of about 0.4 g (this weight is represented by W0) on the bottom of a weighing bottle (diameter: 3.6 cm, height excluding lid: 1.8 cm) so as to give uniform thickness. The sample contained in the weighing bottle was allowed to stand still in a constant humidity and constant temperature vessel (ENVIROS KCL-1000, TOKYO RIKAKIKAI CO, LTD) under environments of 25° C. and 65% RH. The weight was measured periodically, waiting until sufficient moisture absorption to attain equilibrium of weight increase (about 48 hours). Thereafter, the sample was transferred to under environments of 25° C. and 20% RH (in sealed vessel containing a saturated CH3COOK aqueous solution filled in the bottom part). From the weight after 24 hours (this weight is represented by W1), the amount of retained water per 1 g of the dried sample was calculated according to the following formula. (W1−W0)/W0
From the water amount thus calculated, the moisturizing effect was judged based on the following judging criterion, and the results are shown in Table 43.
Three compounds: 2,3-di-O-glyceryl ascorbic acid, 2,3-di-O-phenylglyceryl ascorbic acid, and glycerin, and
Six compounds: ascorbic acid, ascorbic acid glucoside, 2-O-glyceryl ascorbic acid, 3-O-glyceryl ascorbic acid, 3-O-butylglyceryl ascorbic acid and 3-O-octylglyceryl ascorbic acid, which were adjusted to pH7 with a dilute sodium hydroxide aqueous solution and concentrated.
◯: 25 mg or more and less than 40 mg
Δ: 10 mg or more and less than 25 mg

[5] = tested on: Normal human dermal fibroblasts; assay: Collagen production of human fibroblast (Sircol collagen assay, 100 μM, 48 hours); assay type: cell-based; conditions: Homo sapiens, Fibroblast, cultured 48 hours, N=4, read-out: Collagen production promoting effect (collagen production amount, % of control group)
Method in brief: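 Dermal fibroblasts pre-cultured 24 h, then exposed 48 h to sample at 100 μM in 5% FBS D-MEM at 37 °C, 5% CO2. Free collagen measured by Sircol assay, N=4, expressed as % of untreated control.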

[6] = tested on: Normal human dermal fibroblasts; assay: Collagen production of human fibroblast 2 (100 μM or 500 μM; 2, 4 and 7 days); assay type: cell-based; conditions: for Collagen production amount in comparison with the control group (% value when the control group is 100%): Table 46, 100 μM or 500 μM (not stated which), average ± standard error, N=4
Method in brief: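 Fibroblasts seeded at 2.5×10^4 cells/well in 10% FBS D-MEM and preincubated 24 h, then exposed to sample at 100 μM or 500 μM in 5% FBS D-MEM for 2, 4 or 7 days at 37° C., 5% CO2. Free collagen measured with the Sircol assay (N=4); values expressed as % of control.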

[7] = storage period 2 weeks, 10 panelists
[8] = storage period 4 weeks, 10 panelists

Residual rate ([2]; storage period 0): ⊚ (⊚: 90% or more)
Residual rate ([2]; storage period 2 weeks): ◯ (◯: 80% or more and less than 90%)
Residual rate ([2]; storage period 4 weeks): X (X: 20% or more and less than 60%)
Residual rate ([3]; storage period 0): ◯ (◯: 80% or more and less than 90%)
Residual rate ([3]; storage period 2 weeks): X (X: 20% or more and less than 60%)
Residual rate ([3]; storage period 4 weeks): X (X: 20% or more and less than 60%)
Judgement of moisturizing effect (water amount) [4]: X (X: less than 10 mg)
Structure (SMILES): O=C1O[C@H]([C@@H](O)CO)C(O)=C1O [ascorbic acid]
Whitening effect (melanine production suppressing rate) [1]: ± (<20%:±)
Coloration ([2]; storage period 0, 10 panelists): ◯ (◯: total point of 10 panelists is 25 or more)
Odor ([2]; storage period 0, 10 panelists): ◯ (◯: total point of 10 panelists is 25 or more)
Coloration [2, 7]: Δ (Δ: total point of 10 panelists is 16 to 24)
Odor [2, 7]: Δ (Δ: total point of 10 panelists is 16 to 24)
Coloration [2, 8]: X (X: total point of 10 panelists is 15 or less)
Odor [2, 8]: X (X: total point of 10 panelists is 15 or less)
Coloration ([3]; storage period 0, 10 panelists): ◯ (◯: total point of 10 panelists is 25 or more)
Odor ([3]; storage period 0, 10 panelists): ◯ (◯: total point of 10 panelists is 25 or more)
Coloration [3, 7]: Δ (Δ: total point of 10 panelists is 16 to 24)
Odor [3, 7]: Δ (Δ: total point of 10 panelists is 16 to 24)
Coloration [3, 8]: X (X: total point of 10 panelists is 15 or less)
Odor [3, 8]: X (X: total point of 10 panelists is 15 or less)
activity at 100 µM [5]: 100 to 200%
collagen production promoting effect over time (in words) ([6]; 100 μM or 500 μM, culturing 2, 4 and 7 days): lowers over time
Collagen production amount in comparison with the control group (% value when the control group is 100%) ([6]; culturing period 2 days): 252 ± 12%
Collagen production amount in comparison with the control group (% value when the control group is 100%) ([6]; culturing period 4 days): 182 ± 9%
Collagen production amount in comparison with the control group (% value when the control group is 100%) ([6]; culturing period 7 days): 139 ± 14%
